In patent EP0422215B1, “ANTIBACTERIAL AND AN[…]” (THE ROCKEFELLER UNIVERSITY, priority 1989, dated 1990):
Where no end group is shown, it is not given here.

Key:
Assay type in all cases: cell-based
B. subtilis Bsll = settings: overnight incubation at 30°C; for LETHAL CONCENTRATION Bsll + ME: B. subtilis, plates prepared with medium E; for LETHAL CONCENTRATION Bsll: Bsll = B. subtilis, thin agarose plates
Procedure: (§1) The products of the invention were tested for activity against a variety of test organisms selected to represent a number of different types of pathogens some of them known to be particularly virulent by the inhibition zone assay of Hoffmann et al. (1981) Insect Biochem. 11 537-548. Thin agar or agarose plates (8.5 cm diameter) were prepared with 6 ml of rich medium containing 100 µg/ml of streptomycin and 2 x 10^5 viable cells of a test organism resistant to streptomycin. Wells of […] were punched in the plates and 3 µl of serially diluted samples were placed in the wells. The diameters of the zones of inhibition around the wells were measured after overnight incubation at 30° or 37°C. For each peptide the squares of the zone diameters were plotted against the logarithm of the concentration, and from the slopes and intercepts the lethal concentrations were calculated as described by Hultmark (1983) EMBO J. 2, 571-76 or Hultmark et al. (1982) Eur. J. Biochem. 127 207-217.
(§2) Novel peptides CA(1-8)M(1-18), CA(1-9)M(1-17), CB(1-13)M(1-13), CA(1-17)M(1-9), CA(1-18)M(1-8), M(1-13)CA(1-22) and M(1-13)CA(1-13) were prepared as described above (see Examples 1-6). These novel peptides and CA, CB, and M were tested for activity against a variety of organisms selected to represent a number of different types of pathogens, some of them known to be particularly virulent, by the inhibition zone assay of Hoffmann et al. (1981), Insect Biochem. 11 537-48. As in Examples 1-6, thin agarose plates were prepared with the respective organisms. The diameters of the zones of inhibition were measured after overnight incubation at 30°C. The lethal concentrations were determined as described above (see Examples 1-6; Hultmark et al. articles cited thereat).

E. coli D21 = settings: thin agarose plates, overnight incubation at 30°C
Procedure: as §1, §2

P. aeruginosa OT97 = settings: thin agarose plates, overnight incubation at 30°C
Procedure: as §1, §2

S. aureus Cowan I = settings: thin agarose plates, 30°C, * indicates flat concentration dependence
Procedure: as §1, §2

S. pyogenes = settings: thin agarose plates, overnight incubation at 30°C
Procedure: as §1, §2

Sheep Red Cells = test: lysis of sheep red blood cells (lysis assay or inhibition zone plate assay with SRC); settings: SRC = Sheep Red Cells; ? indicates turbid zone (melittin gives clear zone)
Procedure: These values were obtained by either the lysis assay normally used for melittin or by an adaptation of the antibacterial inhibition zone assay of the above-cited Hultmark et al. articles to plates with sheep red cells (SRC). With respect to the latter, sterile agarose plates contained 6 ml of medium with 1% agarose, 0.9% NaCl and 10% SRC suspended in Alsevers solution. A dilution series of peptide was applied in 3mm wells each loaded with 3 µl of the respective samples. The plates were incubated at 30°C for 24 h, the zones were recorded and LC values calculated as described in the Hultmark et al. articles. Clear zones were recorded after a few hours of incubation and the use of such data gave an LC value of the same order as readings after 24 h. This plate assay is faster and more convenient than the lysis assay normally used for melittin.

[1] = tested on: Plasmodium falciparum strain F32 (Tanzania); test: inhibition of reinvasion of human red cells by blood stream forms of the malaria parasite; settings: result in words, read from Figure 1
Procedure: The blood stream forms of the malaria parasite Plasmodium falciparum, primarily late trophozoites and early schizonts, were assayed by recording the inhibition of the reinvasion of human red cells by the method of Wahlin, B., et al, (1984) Proc. Natl. Acad. Sci. USA 81, 7912-16. Quadruplicate microcultures of strain F32 (Tanzania) were incubated for 20 hrs at 37°C in a complete tissue culture medium, with or without different concentrations of the peptides to be assayed. After acridine orange staining, the percentage of newly infected red cells was scored in a fluorescence microscope. For each culture 40,000 red cells were analysed for parasitic infection. Duplicate assays were run for CA(1-13)M(1-13).

Row | Compound | LETHAL CONCENTRATION Bsll + ME (B. subtilis Bsll) [µM] | LETHAL CONCENTRATION Bsll (B. subtilis Bsll) [µM] | LETHAL CONCENTRATION D21 (E. coli D21) [µM] | LETHAL CONCENTRATION OT97 (P. aeruginosa OT97) [µM] | LETHAL CONCENTRATION Staph (S. aureus Cowan I) [µM] | LETHAL CONCENTRATION Strep (S. pyogenes) [µM] | LETHAL CONCENTRATION SRC (Sheep Red Cells) [µM] | activity against Plasmodium falciparum (inhibition of reinvasion, Figure 1) [1]
1 | H-KWKLFKKIEKVGQNIRDGIIKAGPAVAVVGQATQIAK-NH2 [CA(1-37), reference compound] | 200 | 4 | 0.2 | 2 | >200 | 4 | >200 | only negligible activity
2 | H-KWKVFKKIEKMGRNIRNGIVKAGPAIAVLGEAKAL-NH2 [CB(1-35), reference compound] |  |  | 0.3 | 1 | >200 | 12 |  | about as potent as Mag
3 | CC[C@H](C)[C@H](NC(=O)CNC(=O)[C@@H](NC(=O)[C@H](CCCCN)NC(=O)[C@H](CCCCN)NC(=O)[C@H](Cc1ccccc1)NC(=O)[C@H](CC(C)C)NC(=O)[C@H](CCCCN)NC(=O)[C@H](Cc1c[nH]c2ccccc12)NC(=O)[C@@H](N)CCCCN)[C@@H](C)CC)C(=O)NCC(=O)N[C@@H](C)C(=O)N[C@H](C(=O)N[C@@H](CC(C)C)C(=O)N[C@@H](CCCCN)C(=O)N[C@H](C(=O)N[C@@H](CC(C)C)C(=O)N[C@H](C(=O)N[C@H](C(=O)NCC(=O)N[C@@H](CC(C)C)C(=O)N1CCC[C@H]1C(=O)N[C@@H](C)C(=O)N[C@@H](CC(C)C)C(=O)N[C@H](C(=O)N[C@@H](CO)C(N)=O)[C@@H](C)CC)[C@@H](C)O)[C@@H](C)O)C(C)C)C(C)C [CA(1-8)M(1-18)] | 0.5 | 0.4 | 0.3 | 0.7 | 1 | 2 | >600 | 
4 | KWKLFKKIEKVGQNIRDGIGAVLKVL-NH2 [CA(1-17)M(1-9)] | 1 | 0.5 | 0.5 | 5 | 4 | 0.2 | >600 | 
5 | CC[C@H](C)[C@H](NC(=O)CNC(=O)[C@H](CCCNC(=N)N)NC(=O)CNC(=O)[C@H](CCSC)NC(=O)[C@H](CCCCN)NC(=O)[C@H](CCC(=O)O)NC(=O)[C@@H](NC(=O)[C@H](CCCCN)NC(=O)[C@H](CCCCN)NC(=O)[C@H](Cc1ccccc1)NC(=O)[C@@H](NC(=O)[C@H](CCCCN)NC(=O)[C@H](Cc1c[nH]c2ccccc12)NC(=O)[C@@H](N)CCCCN)C(C)C)[C@@H](C)CC)C(=O)NCC(=O)N[C@@H](C)C(=O)N[C@H](C(=O)N[C@@H](CC(C)C)C(=O)N[C@@H](CCCCN)C(=O)N[C@H](C(=O)N[C@@H](CC(C)C)C(=O)N[C@H](C(=O)N[C@H](C(=O)NCC(=O)N[C@@H](CC(C)C)C(N)=O)[C@@H](C)O)[C@@H](C)O)C(C)C)C(C)C [CB(1-13)M(1-13)] | 0.4 | 0.4 | 0.3 | 1 | 4 | 1 | >400 | 
